Measurements as given in PMC2360244 (British Journal of Cancer, 2007).
Like-named read-outs stand apart in the source and are kept apart here.

Columns and labels:
[1] = system: A2780 ovarian carcinoma xenograft; assay: A2780 ovarian xenograft, tumour growth; format: in vivo, mice; conditions: median tumour size at end of study
Experimental: (§1) All mice used in the in vivo studies were athymic male NMRI nu/nu mice purchased from Janvier (France) and were treated according to the ethical guidelines prescribed by UKCCCR. A2780 ovarian, HCT116 colon and H460 lung carcinoma cells were injected s.c. (10^7 cells per 200 μl) into the inguinal region of Nude mice. […] Tumour size was determined using caliper measurement and tumour volume was determined by using the formula: TV=(a^2 × b)/2 (in which a represents the width and b the length).
(§2) Mice were treated orally once daily (q.d.) between day 4 and 28 (A2780) or between day 4 and 32 (H460 and HCT116). (A) A2780 ovarian tumours were measured at least twice a week throughout the study, and results are represented as the median tumour size, expressed in mm^3, of each individual group (n=10). (B) Mice were treated orally q.d. at the indicated doses. Results are represented as the treated/control values (%) of the median tumour size (n=10) at the end of the study.

[2] = system: primary human mammary epithelial cells (HMEC); assay: cells
Experimental: (§3) Control cells were treated with the combined respective vehicle.

[3] = system: HUVECs; assay: cells; conditions: Homo sapiens, HUVEC, read-out: IC50, growth of HUVECs
Experimental: as §3

[4] = Tolerability of once-daily oral dosing for 28 days; format: in vivo; conditions: up to 40 mpk p.o., immunodeficient mice
Experimental: as §1

[5] = system: H460 lung carcinoma xenograft; assay: H460 lung xenograft, tumour growth; format: in vivo, mice; conditions: median tumour size at end of study
Experimental: as §1, §2

[6] = system: tubulin acetylation and Hsp70 in A2780 ovarian carcinoma cells; assay: Western blot of acetylated tubulin and Hsp70 in A2780 cells (HDAC6 readout); format: cell-based, human; conditions: 24 h, western blot
Experimental: (§4) Human A2780 ovarian carcinoma cells were incubated with the indicated concentrations of HDAC inhibitors. Total cell lysates were prepared and analysed by SDS–PAGE. […] To control for equal loading, blots were stripped and re-probed with mouse monoclonal antiactin IgM (Ab-1, Oncogene Research products, Merck, Darmstadt, Germany). […] Protein–antibody complexes were then visualised by chemiluminescence (Pierce Chemical Co., Perbioscience, Erembodegem, Belgium) or fluorescence (Odyssey) according to manufacturer's instructions.
(§5) Total cell lysates were prepared and analysed by SDS–PAGE. Levels of acetylated H3 and tubulin, and of total levels of H3 and tubulin and of p21^waf1, cip1 and Hsp70 and c-raf protein, were detected using rabbit polyclonal and mouse monoclonal antibodies, followed by ECL detection as indicated in the Methods section. To control for equal loading, blots were stripped and re-probed with antibodies against actin and the nuclear protein Lamin B1. A representative experiment out of three is shown.

[7] = system: ALL, AML, CLL, CML, lymphoma and myeloma tumour cells; assay: cells; conditions: Homo sapiens, read-out: IC50 values, proliferation of haematological tumour cells (range over panel)
Experimental: The effect of HDAC inhibitors on cell proliferation was measured using an MTT (3-(4,5-dimethyl-2-thiazolyl)-2,5-diphenyl-2H-tetrazolium bromide)-based assay (Serva, Heidelberg, Germany). Cells were seeded in Falcon or NUNC 96-well culture plates (Life Technologies, Merelbeke, Belgium) in 100 μl culture medium and allowed to adhere to plastic for 18–48 h. Test compounds were dissolved in DMSO and further dilutions were made in culture medium, with final concentrations of DMSO never exceeding 0.1% (v v^−1), and incubated for 4 days. Proliferation of NSCLC was assessed using Alamar Blue-based assay. Cells were seeded in COSTAR 384-well culture plates in 45 μl culture medium and allowed to adhere to plastic for 24 h. Alamar blue was added after 72 h, with the exception of HCC-15, HCC-44, NCI-H2122 and NCI-H460, where Alamar blue was added after 90 h and OD values were measured at 4 days following compound exposure. Data are presented as mean±s.d. of three independent experiments.

[8] = system: H3 acetylation and p21waf1,cip1 in A2780 ovarian carcinoma cells; assay: Western blot of acetylated H3 and p21waf1,cip1 in A2780 cells (class I HDAC readout); format: cell-based, human
Experimental: as §4, §5

[9] = system: A2780 ovarian carcinoma cells; assay: Cell-cycle analysis, propidium iodide staining and FACS; format: cell-based, human
Experimental: Human A2780 ovarian carcinoma cells were seeded at 2 × 10^6 cells per 75-cm^2 flask and, after 24 h, incubated with the indicated concentration of test compound. To analyse cell-cycle distribution, sub-confluent cells were collected, centrifuged and washed with PBS. The cell pellets were re-suspended in citrate buffer and nuclei were stained with propidium iodide (Sigma-Aldrich, Bornem, Belgium) as described previously ([Vindelov et al, 1983]). Analysis was carried out using a BD-LSR flow cytometer (BD Biosciences, Erembodegem, Belgium) equipped with an argon laser (488 nm excitation). Cell-cycle profiles were analysed using WinList 3D version 4.0 and areas under the curve were calculated using ModFit LT version 3.1 (Verity Software House Inc.).
DNA content of nuclei was evaluated using propidium iodide staining followed by FACS analysis, and the number of cells in sub-G1, G1, S and G2M phase was calculated as a percentage of control. Results are expressed as % of total cells and a representative experiment out of three is shown.

[10] = system: HDAC isotypes in partially purified extract from rat liver (MAL, unselective); conditions: read-out: Liver extract MAL unselective IC50, substrate MAL
Experimental: After centrifugation, the cleared extract was used for immunoprecipitation of HDAC1. […] Incubation was performed for 45 min at 37°C (immunoprecipitates) or 30 min at room temperature (HeLa nuclear extract). Before addition of substrate, HDAC inhibitors were added at increasing concentrations and preincubated for 10 min at room temperature. After incubation, the reaction was quenched with 35 μl stop buffer (1 M HCl and 0.4 M acetic acid). Released [^3H]acetic acid was extracted with 800 μl ethyl acetate and quantified by scintillation counting. Equal amounts of HDAC1 were immunoprecipitated as indicated by western blot analysis. Histone deacetylase 1 activity results are presented as mean±s.d. of three independent experiments on a single lysate. […] Finally, we measured the activities of different HDAC isotypes present in partially purified extract from rat liver using the fluorescent HDAC substrates MAL (unselective), B61 (selective for HDAC1, and to some extent also converted by HDAC3) and B12 (selective for HDAC6).

[11] = system: A2780 ovarian carcinoma cells; assay: A2780 tumour cell proliferation, MTT colorimetric assay; format: cell-based, human; conditions: Homo sapiens, A2780, 96 h, 4 days, mean±s.d.
Experimental: as §3

## O=C(NO)c1cnc(N2CCN(S(=O)(=O)c3ccc4ccccc4c3)CC2)nc1 [R306465]
[1]; 10 mpk p.o. q.d. day 4 to 28
  T/C values (%) A2780 ovarian: 47%
[1]; 20 mpk p.o. q.d. day 4 to 28
  T/C values (%) A2780 ovarian: 13%
[1]; 40 mpk p.o. q.d. day 4 to 28
  T/C values (%) A2780 ovarian: 24%
[2]; read-out: IC50, primary HMEC proliferation
  IC50: 0.032 ± 0.0097 µM
[2]; read-out: IC50, quiescent non-proliferative HMEC cells
  IC50: 7.82 ± 0.435 µM
[3]
  IC50: 0.186 ± 0.023 µM
[4]
  tolerability: well-tolerated
[5]; 10 mpk p.o. q.d. day 4 to 32
  T/C values (%) H460 lung: 56%
[5]; 20 mpk p.o. q.d. day 4 to 32
  T/C values (%) H460 lung: 64%
[5]; 40 mpk p.o. q.d. day 4 to 32
  T/C values (%) H460 lung: 31%
[6]
  concentration at which tubulin acetylation and Hsp70 levels increase: 1 µM
[7]
  IC50: 0.015 to 0.486 µM
[8]; 24 h, western blot
  concentration at which H3 acetylation is induced: 100 nM
  concentration at which p21waf1,cip1 is induced: 100 nM
[8]; H3 acetylation vs tubulin acetylation
  cellular potency for HDAC1 vs HDAC6 (higher for HDAC1): 10 fold
[9]; 0.1 μM, 24 h
  G0–G1, % of total cells: 44.6%
  G2–M, % of total cells: 28.3%
  S-phase, % of total cells: 27.1%
[9]; 0.1 μM, 48 h
  G0–G1, % of total cells: 64.4%
  G2–M, % of total cells: 17.0%
  S-phase, % of total cells: 18.6%
[9]; 0.3 μM, 24 h
  G0–G1, % of total cells: 76.5%
  G2–M, % of total cells: 7.8%
  S-phase, % of total cells: 15.7%
[9]; 0.3 μM, 48 h
  G0–G1, % of total cells: 67.2%
  G2–M, % of total cells: 14.9%
  S-phase, % of total cells: 17.9%
[9]; 1 μM, 24 h
  G0–G1, % of total cells: 55.4%
  G2–M, % of total cells: 39.2%
  S-phase, % of total cells: 5.4%
[9]; 1 μM, 48 h
  G0–G1, % of total cells: 45.5%
  G2–M, % of total cells: 44.5%
  S-phase, % of total cells: 10.0%
[9]; 24 h incubation
  concentration at which decrease in S phase with parallel increase in G1 phase was observed: 300 nM
  concentration at which increase in the sub-G1 fraction was observed: 1 µM
[9]; 48 h incubation
  concentration from which increase in sub-G1 phase was observed: ≥ 100 nM
[10]
  IC50: 0.886 ± 0.085 µM
[11]
  IC50: 0.039 ± 0.017 µM
